According to paper PMC11724923 (Nature Communications, 2025):

How the values were obtained:
[1] = biological target: T1, PRDX1 (Homo sapiens, UniProt Q06830); assay: SPR; assay type: binding
T1 sequence (Q06830 1-199): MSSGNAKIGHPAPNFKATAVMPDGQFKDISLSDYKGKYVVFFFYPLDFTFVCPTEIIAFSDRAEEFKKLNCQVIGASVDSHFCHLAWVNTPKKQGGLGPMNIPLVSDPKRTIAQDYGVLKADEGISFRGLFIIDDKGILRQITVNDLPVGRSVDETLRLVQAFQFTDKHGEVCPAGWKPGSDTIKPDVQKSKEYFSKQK

[2] = biological target: T1, PRDX1; assay: SPR with sodium palmitate; assay type: binding
[3] = biological target: the molecule itself; assay: crystal structure

`O=C(/C=C/c1ccc(O)c(O)c1)O[C@H](Cc1ccc(O)c(O)c1)C(=O)O` [RA, rosmarinic acid] was tested. Which Kd [1] did it give?
The Kd was 0.3757 ± 0.0025 µM.

For `CCCCCCCCCCCCCCCC(=O)O` [PA, palmitic acid], which Kd [2] is on record?
The Kd was 75.3 ± 4.5 µM.

B1: PRDX1^C52SC83S (aa 1-175) (enzyme, human, UniProt Q06830 1-175, looked up)
chain: MSSGNAKIGHPAPNFKATAVMPDGQFKDISLSDYKGKYVVFFFYPLDFTFVSPTEIIAFSDRAEEFKKLNCQVIGASVDSHFSHLAWVNTPKKQGGLGPMNIPLVSDPKRTIAQDYGVLKADEGISFRGLFIIDDKGILRQITVNDLPVGRSVDETLRLVQAFQFTDKHGEVCPA
Does B1 bind [3]?
Result: binds
